US6387850B1, “Pesticide composition and method” (Application Technologies, Inc., priority 1998, dated 2002)

How the values were obtained:
Assay in all cases: Field weed control in glyphosate-tolerant soybeans, visual rating
Format in all cases: in vivo
Conditions in all cases: 23 days after application, scale 0 = no, 10 = complete weed control
[1] = tested on: barnyard grass (Echinochloa crus-galli)
Source text: (§1) Materials and Methods: Applications were made to glyphosate-tolerant soybeans on Jun. 10, 1998. Weed species present ranging in height from 5 to 20 cm included giant foxtail (Setaria faberii), barnyard grass (Echinochloa crus-galli), volunteer corn (Zea mays) and yellow foxtail (Setaria glauca) Treatments were applied using Spraying Systems Turbo TeeJet TT-11002 nozzles spaced 50 cm apart on the spray boom at 207 kPa spray pressure resulting in a spray volume application of […] liters per hectare.
(§2) Spray solutions consisted of two comparison levels of mineral hardness as measured by TDS in ppm. The original solution consisted of 10 ppm. The second solution measuring 400 ppm was established using calcium chloride at approximately 227 grams per 378 liters.
(§3) Herbicide applications of glyphosate in form of Roundup Ultra® (Monsanto Company) formulation were applied at four rates: 26, 53, 105 and 210 grams of acid equivalent per hectare (g ae/ha) A spray adjuvant, Array® at 4 kilograms per 378 liters of spray solution was added to the spray solution prior to the addition of the herbicide. Array was evaluated across herbicide and spray solution treatments. Array consists of a micro-homogenized combination of AMS (ammonium sulfate) fertilizer at 94.4% analysis 21-0-0-24 (nitrogen-phosphorus-potassium-sulfur) and DR 2000 (Rhodia Surfactants) at 5.6%, a short-chain guar-based polymer.

[2] = tested on: giant foxtail (Setaria faberii)
Source text: as §1, §2, §3

[3] = tested on: volunteer corn (Zea mays)
Source text: as §1, §2, §3

[4] = tested on: yellow foxtail (Setaria glauca)
Source text: as §1, §2, §3

[5] = 26 g ae/ha, solution TDS 10 ppm, Array 4 kg/378 L Yes
[6] = 26 g ae/ha, solution TDS 10 ppm, Array No
[7] = 26 g ae/ha, solution TDS 400 ppm, Array 4 kg/378 L Yes
[8] = 26 g ae/ha, solution TDS 400 ppm, Array No
[9] = 53 g ae/ha, solution TDS 10 ppm, Array 4 kg/378 L Yes
[10] = 53 g ae/ha, solution TDS 10 ppm, Array No
[11] = 53 g ae/ha, solution TDS 400 ppm, Array 4 kg/378 L Yes
[12] = 53 g ae/ha, solution TDS 400 ppm, Array No
[13] = 105 g ae/ha, solution TDS 10 ppm, Array 4 kg/378 L Yes
[14] = 105 g ae/ha, solution TDS 10 ppm, Array No
[15] = 105 g ae/ha, solution TDS 400 ppm, Array 4 kg/378 L Yes
[16] = 105 g ae/ha, solution TDS 400 ppm, Array No
[17] = 210 g ae/ha, solution TDS 10 ppm, Array 4 kg/378 L Yes
[18] = 210 g ae/ha, solution TDS 10 ppm, Array No
[19] = 210 g ae/ha, solution TDS 400 ppm, Array 4 kg/378 L Yes
[20] = 210 g ae/ha, solution TDS 400 ppm, Array No

SMILES: O=C(O)CNCP(=O)(O)O [Glyphosate, glyphosate]
- Visual rating of weed control, Barnyard Grass [1, 5]: 3
- Visual rating of weed control, Barnyard Grass [1, 6]: 2
- Visual rating of weed control, Barnyard Grass [1, 7]: 1
- Visual rating of weed control, Barnyard Grass [1, 8]: 0
- Visual rating of weed control, Barnyard Grass [1, 9]: 5
- Visual rating of weed control, Barnyard Grass [1, 10]: 4
- Visual rating of weed control, Barnyard Grass [1, 11]: 2
- Visual rating of weed control, Barnyard Grass [1, 12]: 1
- Visual rating of weed control, Barnyard Grass [1, 13]: 7
- Visual rating of weed control, Barnyard Grass [1, 14]: 5
- Visual rating of weed control, Barnyard Grass [1, 15]: 3
- Visual rating of weed control, Barnyard Grass [1, 16]: 2
- Visual rating of weed control, Barnyard Grass [1, 17]: 10
- Visual rating of weed control, Barnyard Grass [1, 18]: 9
- Visual rating of weed control, Barnyard Grass [1, 19]: 6
- Visual rating of weed control, Barnyard Grass [1, 20]: 5
- Visual rating of weed control, Giant Foxtail [2, 5]: 3
- Visual rating of weed control, Giant Foxtail [2, 6]: 2
- Visual rating of weed control, Giant Foxtail [2, 7]: 1
- Visual rating of weed control, Giant Foxtail [2, 8]: 0
- Visual rating of weed control, Giant Foxtail [2, 9]: 4
- Visual rating of weed control, Giant Foxtail [2, 10]: 3
- Visual rating of weed control, Giant Foxtail [2, 11]: 2
- Visual rating of weed control, Giant Foxtail [2, 12]: 1
- Visual rating of weed control, Giant Foxtail [2, 13]: 8
- Visual rating of weed control, Giant Foxtail [2, 14]: 6
- Visual rating of weed control, Giant Foxtail [2, 15]: 3
- Visual rating of weed control, Giant Foxtail [2, 16]: 2
- Visual rating of weed control, Giant Foxtail [2, 17]: 10
- Visual rating of weed control, Giant Foxtail [2, 18]: 9
- Visual rating of weed control, Giant Foxtail [2, 19]: 6
- Visual rating of weed control, Giant Foxtail [2, 20]: 5
- Visual rating of weed control, Volunteer Corn [3, 5]: 2
- Visual rating of weed control, Volunteer Corn [3, 6]: 1
- Visual rating of weed control, Volunteer Corn [3, 7]: 1
- Visual rating of weed control, Volunteer Corn [3, 8]: 0
- Visual rating of weed control, Volunteer Corn [3, 9]: 4
- Visual rating of weed control, Volunteer Corn [3, 10]: 3
- Visual rating of weed control, Volunteer Corn [3, 11]: 2
- Visual rating of weed control, Volunteer Corn [3, 12]: 1
- Visual rating of weed control, Volunteer Corn [3, 13]: 8
- Visual rating of weed control, Volunteer Corn [3, 14]: 5
- Visual rating of weed control, Volunteer Corn [3, 15]: 3
- Visual rating of weed control, Volunteer Corn [3, 16]: 2
- Visual rating of weed control, Volunteer Corn [3, 17]: 10
- Visual rating of weed control, Volunteer Corn [3, 18]: 9
- Visual rating of weed control, Volunteer Corn [3, 19]: 6
- Visual rating of weed control, Volunteer Corn [3, 20]: 5
- Visual rating of weed control, Yellow Foxtail [4, 5]: 2
- Visual rating of weed control, Yellow Foxtail [4, 6]: 2
- Visual rating of weed control, Yellow Foxtail [4, 7]: 1
- Visual rating of weed control, Yellow Foxtail [4, 8]: 0
- Visual rating of weed control, Yellow Foxtail [4, 9]: 4
- Visual rating of weed control, Yellow Foxtail [4, 10]: 3
- Visual rating of weed control, Yellow Foxtail [4, 11]: 2
- Visual rating of weed control, Yellow Foxtail [4, 12]: 1
- Visual rating of weed control, Yellow Foxtail [4, 13]: 7
- Visual rating of weed control, Yellow Foxtail [4, 14]: 5
- Visual rating of weed control, Yellow Foxtail [4, 15]: 3
- Visual rating of weed control, Yellow Foxtail [4, 16]: 2
- Visual rating of weed control, Yellow Foxtail [4, 17]: 9
- Visual rating of weed control, Yellow Foxtail [4, 18]: 8
- Visual rating of weed control, Yellow Foxtail [4, 19]: 5
- Visual rating of weed control, Yellow Foxtail [4, 20]: 5
